Measurements published in patent US8232107B2, “Methods for measuring the metabolism of neurally derived biomolecules in vivo” (Washington University in St. Louis, priority 2005, dated 2012).
Values belong to the molecule of their own block, whether it stands above or below them.

Columns and labels:
[1] = In vivo labeling of Aβ in human CSF, immunoprecipitation-MS/MS, calculation of FSR and FCR
Description: Informed consent was obtained from all participants. […] CSF samples were obtained hourly throughout the study.
Aβ metabolic labeling curves of three participants are presented in FIG. 8. ^13C6-labeled leucine was infused through one IV at a rate of 1.9 (circles), 2.5 (triangles), or 2.5 (squares) mg/kg/hr for 12 (circles, triangles) or 9 (squares) hours. Each hour, 10 ml of plasma and 6 ml of CSF were obtained through the other IV and the lumbar catheter, respectively. There was a 5-hour lag time before significant rises in labeled Aβ was detected. This was followed by a 9 (squares) or 12 (triangles or circles) hour increase in labeled Aβ until it plateaued for another 5 hours.
For each hourly sample of CSF collected, the ratio of labeled to unlabeled Aβ was determined by immunoprecipitation-MS/MS, as described above. The MS/MS ions from ^13C6-labeled Aβ17-28 were divided by the MS/MS ions from unlabeled Aβ17-28 to produce a ratio of labeled Aβ to unlabeled Aβ (see TTR formula, above). There was no measurable labeled Aβ for the first 4 hours, followed by an increase from 5 to 13 hours. There was no significant change from 13 to 24 hours. The labeled Aβ decreased from 24 to 36 hours.
[formula] Where (Et2-Et1)Aβ/(t2-t1) is defined as the slope of labeled Aβ during labeling and the Precursor E is the ratio of labeled leucine. FSR, in percent per hour, was operationally defined as the slope of the linear regression from 6 to 15 hours divided by the average of CSF ^13C6-labeled leucine level during infusion (see FIG. 11A-C). For example, a FSR of 7.6% per hour means that 7.6% of total Aβ was produced each hour.
The fractional clearance rate (FCR) was calculated by fitting the slope of the natural logarithm of the clearance portion of the labeled Aβ curve, according to the following formula: […]
The FCR was operationally defined as the natural log of the labeled Aβ from 24 to 36 hours (FIG. 11D-F). For example, a FCR of 8.3% per hour means that 8.3% of total Aβ was cleared each hour. The average FSR of Aβ for these 6 healthy young participants was 7.6%/hr and the average FCR was 8.3%/hr (FIG. 12). These values were not statistically different from each other.

[2] = in vivo, iv, 2 mg/kg
Excerpt: All human studies were approved by the Washington University Human Studies Committee and the General Clinical Research Center (GCRC) Advisory Committee. Informed consent was obtained from all participants. All participants were screened to be in good general health and without neurologic disease. Seven men and three women (23-45 yrs old) participated. Each research participant was admitted to the GCRC at 7:00 AM after an overnight fast from 8 PM the preceding evening. The GCRC Research Kitchen provided meals (60% carbohydrate, 20% fat, 20% protein, low leucine diet during labeled leucine infusion) at 9 AM, 1 PM, and 6 PM and the participant had free access to water. All food and water consumption was recorded during the admission by nursing staff and the GCRC kitchen. One intravenous catheter was placed in an antecubital vein and used to administer the stable isotope labeled leucine solution. A second intravenous catheter was placed in the contra-lateral antecubital vein to obtain blood samples. A subarachnoid catheter was inserted at the L3-L4 interspace via a Touhy needle, so that CSF could be sampled without performing multiple lumbar punctures (Williams, 2002, Neurology 58: 1859-1860). […]
Every hour, 10 ml of plasma was obtained through the other IV. […] To obtain amino acid sequence and abundance data, these parent ions were subjected to collision induced dissociation (CID 28%), and tandem MS analysis of their doubly-charged species ([M+2H]^+2; m/z 663.6 and 666.6) were scanned in selected reaction monitoring mode (SRM), so that the y- and b-series ions generated were used for isotope ratio quantitation (FIG. 6). […]
Plasma and CSF samples were analyzed to determine the amount of labeled leucine present in each fluid (FIG. 9). The labeled to unlabeled leucine ratios for plasma and CSF ^13C6-leucine were quantified using capillary gas chromatography-mass spectrometry (GC-MS) (Yarasheski et al. 2005, Am J. Physiol. Endocrinol. Metab. 288: E278-284; Yarasheski et al. 1998 Am J. Physiol. 275: E577-583), which is more appropriate than LC-ESI-MS for low mass amino acid analysis.

[3] = Measurement of ApoE metabolism in vivo (CSF, WUE4 affinity purification, nanoLC tandem MS); set-up: species or system human
Excerpt: As depicted in FIG. 13, human ApoE was immunoprecipitated from CSF or astrocyte cell culture media using WUE4, a specific anti-human ApoE monoclonal (anti-ApoE) antibody. An immortalized astrocyte cell line from transgenic mice expressing human ApoE was used to produce ^13C6-labeled leucine ApoE standards. Immunoprecipitated ApoE was then digested with sequencing-grade trypsin. Released peptides were separated by nano liquid chromatography and quantitated by tandem mass spectrometry (nanoLC-MS). The efficiency and selectivity of the immuno-affinity purification was confirmed by analyzing the samples following a general proteomics LC-MS method. Results from Bioworks™3.2, using the SEQUEST algorithm, confirmed ApoE was the predominant protein present in samples, and identified the most abundant peptides containing leucines, which could be used for quantitation. Due to the 6 Da mass shift of a ^13C6-labeled leucine, unlabeled peptides were distinguishable from labeled peptides. Tandem MS was performed on the peptides of interest, and the percent of ^13C-leucine incorporated into ApoE was determined by calculating the ratio of labeled product ions to unlabeled product ions. The excellent linearity from 0-25% labeling (R^2=0.99) indicates the method developed to measure ApoE is sensitive, specific, and accurate.
CSF was collected every hour for 36 hours.

Molecule: Aβ: amyloid-β protein, CNS derived biomolecule whose metabolism is measured
average fractional synthesis rate (FSR) of Aβ ([1]; 6 healthy young participants): 7.6 %/hr
average fractional clearance rate (FCR) of Aβ ([1]; hours 24 to 36, 3 participants): 8.3 %/hr
initial period with no measurable labeled Aβ ([1]; mean of n=6 (FIG. 10)): 4 h
lag time before significant rises in labeled Aβ ([1]; three participants (FIG. 8)): 5 h

steady state level of 13C6-leucine in CSF [2]: 10%
steady state level of 13C6-leucine in plasma [2]: 14%
time to reach steady state levels in plasma and CSF [2]: within an hour
Molecule: CC(C)C[C@H](N)C(=O)O [^13C6-leucine]

Molecule: ApoE: human apolipoprotein E, CNS-derived, purified from CSF
fractional synthesis rate (FSR) of ApoE ([3]; CSF, young normal controls (FIG. 15 and 16)): approximately 2 percent per hour
time in which approximately half of the ApoE pool is synthesized in the human brain ([3]; from FSR): about 24 hours
